Legend:
[1] = tested on: Human Fibroblast Cells; test: Transfection of human fibroblast cells with DOTMA/DOPE/peptide and eGFP plasmid, fluorescent plate reader; type: cell-based; conditions: DOTMA/DOPE 1:1 plus peptide with RRRRRRRRRRRR (SEQ ID NO: 109) at n terminus; EF1Alpha eGFP plasmid; 0.01 mL complex; 42 hours
Method: (§1) Cells were plated to so that on the day of transfection the cells were 60-70% confluent in 96 well tissue culture plates. A DOMTA/DOPE Lipid solution (1:1 molar ratio) at 2 mg/mL in water were mixed with an equal volume of surface ligand peptides that had the nucleic acid binding moiety RRRRRRRRRRRR (SEQ ID NO: 109) covalently linked to the n terminus of each peptide during peptide synthesis. Peptides were at 2 mg/mL in water. The DOTMA/DOPE and the surface ligand peptide solution the transfection reagent was diluted 1 to 1 (v/v) in water. DOMTA/DOPE/PEPTIDE solutions were added to 0.1 mL of a plasmid DNA solution (EF1Alpha eGFP plasmid) at 5 μg/mL in OptiMEM. Lipofectamine 2000 was obtained from Life Technologies.
(§2) All solutions were at room temperature. A volume of 0.2 mL of a 5 μg/mL solution of DNA was aliquoted into each well of a non-tissue cultured treated plate. 4.0 μL of transfection reagents were added to DNA solutions respectively. The transfection reagent and DNA solution was mixed by pipetting up and down twice. Transfection complexes were formed for 10 minutes. After 10 minutes, 0.01 or 0.02 mL of the transfection complex was added to cells. HuVEC, HeLa, human adult keratinocytes, human primary adult fibroblast, and rat cortical neurons all respectively received 0.01 mL of the tramsfectopm complex. Human skeletal muscle cells, mouse C2C12 cells, Jurkat, and THP-1 cells received 0.02 mL of the transfection complex. Cells were incubated for 42 hours at 37° C. at 5% CO2. Plates were read on a fluorescent plate reader. Cells were also examined visually under a microscope to assess the extent of transfection (in terms of the percent of cells transfected) with a fluorescent microscope. Other modes of analysis, for example quantification with B-galactosidase or luciferase reports plasmids can also be used. […] Surface ligand that caused increase expression of GFP over the lipid DOTMA with no surface ligand were considered to enhance transfection or had higher % cells transfected were considered to enhance transfection. Peptides that gave greater than 2 fold enhancement are noted in bold and could be further optimized by adding different transfection enhancers or could be used with different cationic lipids or polymers.

[2] = tested on: some examined cell types; test: Transfection expression and % cells transfected over the no peptide control; type: cell-based; conditions: on some examined cell types
Method: as §1, §2

[3] = tested on: HuVec Cells; test: Transfection of HuVec cells with DOTMA/DOPE/peptide and eGFP plasmid, fluorescent plate reader; type: cell-based; conditions: DOTMA/DOPE 1:1 plus peptide with RRRRRRRRRRRR (SEQ ID NO: 109) at n terminus; EF1Alpha eGFP plasmid; 0.01 mL complex; 42 hours
Method: as §1, §2

[4] = tested on: HeLa Cells; test: Transfection of HeLa cells with DOTMA/DOPE/peptide and eGFP plasmid, fluorescent plate reader; type: cell-based; conditions: DOTMA/DOPE 1:1 plus peptide with RRRRRRRRRRRR (SEQ ID NO: 109) at n terminus; EF1Alpha eGFP plasmid; 0.01 mL complex; 42 hours
Method: as §1, §2

[5] = tested on: NL-1 iPS Cells; test: Transfection of NL-1 iPS cells with DOTMA/DOPE/peptide and eGFP plasmid, fluorescent plate reader; type: cell-based; conditions: DOTMA/DOPE 1:1 plus peptide with RRRRRRRRRRRR (SEQ ID NO: 109) at n terminus; EF1Alpha eGFP plasmid; 42 hours
Method: as §1, §2

[6] = tested on: HeLa Cells; test: Transfection of HeLa cells with DOTMA/SEQ ID NO: 72/peptide compared with Lipofectamine 2000; type: cell-based; conditions: fusogenic peptide 0.1 mg/mL
Method: as §1, §2
The fusogenic peptide was added to the DOMTA/peptide formulation to achieve a final concentration of 0.1 mg/mL to see if transfection reagents were further enhanced by the addition of a fusogenic peptide and could provide higher transfection efficiency into HeLa cells and expression than the commercially available Lipofectamine 2000.

[7] = tested on: Jurkat Cells; test: Transfection of Jurkat cells with DOTMA/DOPE/peptide and eGFP plasmid, fluorescent plate reader; type: cell-based; conditions: DOTMA/DOPE 1:1 plus peptide with RRRRRRRRRRRR (SEQ ID NO: 109) at n terminus; EF1Alpha eGFP plasmid; 0.02 mL complex; 42 hours
Method: as §1, §2

[8] = tested on: C2C12 Cells; test: Transfection of C2C12 cells with DOTMA/DOPE/peptide and eGFP plasmid, fluorescent plate reader; type: cell-based, mouse; conditions: DOTMA/DOPE 1:1 plus peptide with RRRRRRRRRRRR (SEQ ID NO: 109) at n terminus; EF1Alpha eGFP plasmid; 0.02 mL complex; 42 hours
Method: as §1, §2

[9] = 0.1 μL of DOTMA/SEQ ID NO: 72/Peptide in well of a 96 well plate
[10] = 0.2 μL of DOTMA/SEQ ID NO: 72/Peptide in well of a 96 well plate
[11] = 0.3 μL of DOTMA/SEQ ID NO: 72/Peptide in well of a 96 well plate
[12] = 0.4 μL of DOTMA/SEQ ID NO: 72/Peptide in well of a 96 well plate

Row | Substance | RF (Relative Fluorescence) of Transfection of Human Fibroblast Cells [1] | transfection expression and the % cells transfected over the no peptide control [2] | RF (Relative Fluorescence) of Transfection of HuVec Cells [3] | RF (Relative Fluorescence) of Transfection of HeLa Cells [4] | RF (Relative Fluorescence) of Transfection of NL-1 iPS Cells [5] | RF (Relative Fluorescence), DOTMA/SEQ ID NO: 72/Peptide, HeLa Cells [6, 9] | RF (Relative Fluorescence), DOTMA/SEQ ID NO: 72/Peptide, HeLa Cells [6, 10] | RF (Relative Fluorescence), DOTMA/SEQ ID NO: 72/Peptide, HeLa Cells [6, 11] | RF (Relative Fluorescence), DOTMA/SEQ ID NO: 72/Peptide, HeLa Cells [6, 12] | RF (Relative Fluorescence) of Transfection of Jurkat Cells [7] | RF (Relative Fluorescence) of Transfection of C2C12 Cells [8]
1 | 369 (TAIPSCPEGTVPLYS; Peptidic transfection agent) [compound 369] | 7590 | increased | 6536 | 14444 | 13124 | 8737 | 16706 | 14880 | 12645 | 11085 | 3322
2 | 343 (LFSHAVSSNG; Peptidic transfection agent) [compound 343] | 4590 | increased | 16239 | 5910 | 21726 | 6961 | 8626 | 8577 | 8160 | 23499 | 3218
3 | 350 (SIGFRGDGQTC; Peptidic transfection agent) [compound 350] | 7105 | increased | 13163 | 13313 | 19132 | 24092 | 23238 | 19802 | 22255 | 9184 | 2631
4 | 355 (FRHRNRKGY; Peptidic transfection agent) [compound 355] | 6821 | increased | 14810 | 32628 | 7910 | 18362 | 27990 | 22367 | 18289 | 8132 | 1900
5 | 452 (CNYYSNSYSFWLASLNPER; Peptidic transfection agent) [compound 452] | 2779 | increased | 1841 | 13888 | 10349 | 6276 | 12671 | 12047 | 10918 | 2554 | 21798
6 | 342 (TAGSCLRKFSTM; Peptidic transfection agent) [compound 342] | 9525 | increased | 12804 | 33666 | 11493 | 41299 | 36040 | 28841 | 18351 | 12825 | 9496
7 | 375 (LAGSCLPVFSTL; Peptidic transfection agent) [compound 375] | 7305 | increased | 5542 | 41076 | 5196 | 22457 | 30891 | 34887 | 29024 | 4272 | 5633
8 | 503 (TAGSCLRKFSTMRRRRRRRRRRRR; Peptidic transfection agent) [compound 503] | 13085 | increased | 12123 | 25368 | 19014 | 12827 | 20006 | 17101 | 16206 | 9411 | 3973
9 | 450 (TAGSCLRKFSCL; Peptidic transfection agent) [compound 450] | 6996 | increased | 20911 | 21045 | 29856 | 11962 | 17346 | 12553 | 10241 | 8779 | 3795
10 | 379 (TAGSCLRKF; Peptidic transfection agent) [compound 379] | 8520 | increased | 14573 | 27424 | 6894 | 50018 | 47049 | 39036 | 26448 | 7711 | 3189

— patent US11085056B2, “Transfection complexes and methods of using the same” (MOLECULAR TRANSFER, INC., priority 2015, dated 2021)
